Earlier results, collected in paper PMC8468039, “Development of New Meridianin/Leucettine-Derived Hybrid Small Molecules as Nanomolar Multi-Kinase Inhibitors with Antitumor Activity” (Biomedicines, 2021).

Tests used:
Settings in all cases: cited from earlier work
CLK-3 = tested on: CLK-3; parameters: method as in PMID 8383730, PMID 21615147, PMID 19879673, PMID 22998443
DYRK-2 = tested on: DYRK-2; parameters: method as in PMID 21615147, PMID 19879673, PMID 22998443
CLK-1 = tested on: CLK-1; parameters: method as in PMID 21615147, PMID 19879673, PMID 22998443
DYRK-1A = tested on: DYRK-1A; parameters: method as in PMID 21615147, PMID 19879673, PMID 22998443

In the case of CN1C(=O)/C(=C/c2ccc3c(c2)OCO3)N=C1N [leucettamine B, Leucettamine B], the IC50 (CLK-3) is given as 6400 nM, the IC50 (DYRK-2) is given as 1500 nM and the IC50 (CLK-1) is given as 400 nM. For the same molecule, the IC50 (DYRK-1A) was 2800 nM.
